Assay results taken from PMC6199744, “Development of Chemical Proteomics for the Folateome and Analysis of the Kinetoplastid Folateome” (ACS Infectious Diseases, 2018).
Where two headings read alike, the source gives them in different places.

How the values were obtained:
Type in all cases: binding
[1] = target: T1, HeLa cell extract proteins (Homo sapiens, UniProt P25205)
T1 construct: endogenous in cells; host or cells: HeLa cell extract
T1 sequence (P25205 1-808): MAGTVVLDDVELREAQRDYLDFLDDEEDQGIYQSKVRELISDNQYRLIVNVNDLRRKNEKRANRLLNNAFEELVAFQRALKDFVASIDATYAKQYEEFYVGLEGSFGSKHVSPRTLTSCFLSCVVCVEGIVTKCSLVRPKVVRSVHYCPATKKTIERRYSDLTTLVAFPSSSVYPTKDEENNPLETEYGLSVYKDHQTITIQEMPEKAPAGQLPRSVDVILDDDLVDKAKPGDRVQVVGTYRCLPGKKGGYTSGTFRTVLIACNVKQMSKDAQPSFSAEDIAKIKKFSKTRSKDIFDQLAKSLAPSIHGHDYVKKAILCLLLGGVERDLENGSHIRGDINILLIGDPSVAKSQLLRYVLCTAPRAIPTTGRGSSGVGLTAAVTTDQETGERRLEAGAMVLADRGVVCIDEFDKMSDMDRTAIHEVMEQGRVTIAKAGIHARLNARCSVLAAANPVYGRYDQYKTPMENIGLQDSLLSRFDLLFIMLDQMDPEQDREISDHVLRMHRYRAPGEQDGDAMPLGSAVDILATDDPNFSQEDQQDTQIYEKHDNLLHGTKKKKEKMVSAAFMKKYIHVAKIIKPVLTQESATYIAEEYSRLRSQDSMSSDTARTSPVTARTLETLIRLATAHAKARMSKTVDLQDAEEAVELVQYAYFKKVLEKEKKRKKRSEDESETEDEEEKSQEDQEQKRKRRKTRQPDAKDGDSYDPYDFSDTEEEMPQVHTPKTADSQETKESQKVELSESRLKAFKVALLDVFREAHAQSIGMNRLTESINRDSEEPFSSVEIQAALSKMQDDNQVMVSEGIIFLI

[2] = target: T2, HeLa cell extract proteins (Homo sapiens, UniProt P11021)
T2 construct: endogenous in cells; host or cells: HeLa cell extract
T2 sequence (P11021 19-654): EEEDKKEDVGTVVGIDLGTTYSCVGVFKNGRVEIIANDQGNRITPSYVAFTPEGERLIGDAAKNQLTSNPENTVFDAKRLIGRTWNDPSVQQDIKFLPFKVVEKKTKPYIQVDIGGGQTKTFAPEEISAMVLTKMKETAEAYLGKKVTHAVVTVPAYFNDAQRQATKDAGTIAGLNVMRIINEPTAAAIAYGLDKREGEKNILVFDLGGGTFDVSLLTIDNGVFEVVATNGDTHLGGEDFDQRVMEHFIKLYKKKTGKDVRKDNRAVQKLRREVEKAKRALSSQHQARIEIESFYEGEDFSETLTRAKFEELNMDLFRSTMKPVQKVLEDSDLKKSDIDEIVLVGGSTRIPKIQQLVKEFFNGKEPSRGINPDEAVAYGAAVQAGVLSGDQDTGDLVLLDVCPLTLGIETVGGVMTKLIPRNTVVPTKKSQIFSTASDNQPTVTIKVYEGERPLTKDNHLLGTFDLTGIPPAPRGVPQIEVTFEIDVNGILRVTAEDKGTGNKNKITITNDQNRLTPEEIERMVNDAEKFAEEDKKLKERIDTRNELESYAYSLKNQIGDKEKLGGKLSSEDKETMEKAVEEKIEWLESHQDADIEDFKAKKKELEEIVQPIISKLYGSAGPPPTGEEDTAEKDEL

[3] = target: T3, HeLa cell extract proteins (Homo sapiens, UniProt O95486)
T3 construct: endogenous in cells; host or cells: HeLa cell extract
T3 sequence (O95486 1-1093): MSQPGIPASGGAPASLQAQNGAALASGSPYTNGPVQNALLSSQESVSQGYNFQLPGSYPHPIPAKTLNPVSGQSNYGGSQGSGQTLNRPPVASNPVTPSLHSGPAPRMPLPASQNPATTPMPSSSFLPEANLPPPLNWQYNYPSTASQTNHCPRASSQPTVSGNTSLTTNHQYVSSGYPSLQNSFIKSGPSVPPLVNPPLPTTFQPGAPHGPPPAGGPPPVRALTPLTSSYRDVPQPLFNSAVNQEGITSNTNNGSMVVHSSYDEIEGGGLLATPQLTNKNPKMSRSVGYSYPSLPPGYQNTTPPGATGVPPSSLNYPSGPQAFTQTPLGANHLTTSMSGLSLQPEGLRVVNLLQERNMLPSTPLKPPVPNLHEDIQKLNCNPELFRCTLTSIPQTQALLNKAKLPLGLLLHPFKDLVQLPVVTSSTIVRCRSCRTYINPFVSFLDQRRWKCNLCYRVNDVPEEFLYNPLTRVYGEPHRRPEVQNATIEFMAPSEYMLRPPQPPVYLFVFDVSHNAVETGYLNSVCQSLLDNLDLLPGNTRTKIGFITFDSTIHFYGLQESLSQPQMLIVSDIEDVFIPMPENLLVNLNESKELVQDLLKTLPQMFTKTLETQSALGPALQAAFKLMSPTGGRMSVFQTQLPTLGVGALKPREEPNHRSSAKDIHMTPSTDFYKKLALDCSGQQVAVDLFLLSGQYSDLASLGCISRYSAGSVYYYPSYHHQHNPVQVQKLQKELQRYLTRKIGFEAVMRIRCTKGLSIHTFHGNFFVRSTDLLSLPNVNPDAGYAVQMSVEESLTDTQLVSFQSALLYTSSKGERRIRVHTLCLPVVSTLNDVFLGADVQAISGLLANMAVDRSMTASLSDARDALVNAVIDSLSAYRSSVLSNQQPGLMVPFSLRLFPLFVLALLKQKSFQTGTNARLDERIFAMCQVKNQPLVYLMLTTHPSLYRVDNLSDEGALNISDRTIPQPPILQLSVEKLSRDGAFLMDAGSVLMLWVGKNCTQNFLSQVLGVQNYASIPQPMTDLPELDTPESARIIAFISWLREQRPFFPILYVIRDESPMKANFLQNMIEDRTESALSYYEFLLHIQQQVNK

[4] = target: T4, HeLa cell extract proteins (Homo sapiens, UniProt Q6P1J9)
T4 construct: endogenous in cells; host or cells: HeLa cell extract

[5] = target: T5, HeLa cell extract proteins (Homo sapiens, UniProt P00505)
T5 construct: endogenous in cells; host or cells: HeLa cell extract
T5 sequence (P00505 30-430): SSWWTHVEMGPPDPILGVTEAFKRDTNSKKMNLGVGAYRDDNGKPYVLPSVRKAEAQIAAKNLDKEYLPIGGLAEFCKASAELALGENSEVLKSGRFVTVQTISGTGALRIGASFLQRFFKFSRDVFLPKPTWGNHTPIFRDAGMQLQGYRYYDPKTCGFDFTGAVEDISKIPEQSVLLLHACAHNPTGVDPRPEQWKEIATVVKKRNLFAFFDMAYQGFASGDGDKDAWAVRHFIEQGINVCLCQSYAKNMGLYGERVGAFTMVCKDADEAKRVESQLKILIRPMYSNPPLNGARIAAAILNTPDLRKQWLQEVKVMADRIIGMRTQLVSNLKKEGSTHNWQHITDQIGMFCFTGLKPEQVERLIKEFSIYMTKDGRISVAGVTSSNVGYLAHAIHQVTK

[6] = target: T6, HeLa cell extract proteins (Homo sapiens, UniProt P12270)
T6 construct: endogenous in cells; host or cells: HeLa cell extract
T6 sequence (P12270 whole entry): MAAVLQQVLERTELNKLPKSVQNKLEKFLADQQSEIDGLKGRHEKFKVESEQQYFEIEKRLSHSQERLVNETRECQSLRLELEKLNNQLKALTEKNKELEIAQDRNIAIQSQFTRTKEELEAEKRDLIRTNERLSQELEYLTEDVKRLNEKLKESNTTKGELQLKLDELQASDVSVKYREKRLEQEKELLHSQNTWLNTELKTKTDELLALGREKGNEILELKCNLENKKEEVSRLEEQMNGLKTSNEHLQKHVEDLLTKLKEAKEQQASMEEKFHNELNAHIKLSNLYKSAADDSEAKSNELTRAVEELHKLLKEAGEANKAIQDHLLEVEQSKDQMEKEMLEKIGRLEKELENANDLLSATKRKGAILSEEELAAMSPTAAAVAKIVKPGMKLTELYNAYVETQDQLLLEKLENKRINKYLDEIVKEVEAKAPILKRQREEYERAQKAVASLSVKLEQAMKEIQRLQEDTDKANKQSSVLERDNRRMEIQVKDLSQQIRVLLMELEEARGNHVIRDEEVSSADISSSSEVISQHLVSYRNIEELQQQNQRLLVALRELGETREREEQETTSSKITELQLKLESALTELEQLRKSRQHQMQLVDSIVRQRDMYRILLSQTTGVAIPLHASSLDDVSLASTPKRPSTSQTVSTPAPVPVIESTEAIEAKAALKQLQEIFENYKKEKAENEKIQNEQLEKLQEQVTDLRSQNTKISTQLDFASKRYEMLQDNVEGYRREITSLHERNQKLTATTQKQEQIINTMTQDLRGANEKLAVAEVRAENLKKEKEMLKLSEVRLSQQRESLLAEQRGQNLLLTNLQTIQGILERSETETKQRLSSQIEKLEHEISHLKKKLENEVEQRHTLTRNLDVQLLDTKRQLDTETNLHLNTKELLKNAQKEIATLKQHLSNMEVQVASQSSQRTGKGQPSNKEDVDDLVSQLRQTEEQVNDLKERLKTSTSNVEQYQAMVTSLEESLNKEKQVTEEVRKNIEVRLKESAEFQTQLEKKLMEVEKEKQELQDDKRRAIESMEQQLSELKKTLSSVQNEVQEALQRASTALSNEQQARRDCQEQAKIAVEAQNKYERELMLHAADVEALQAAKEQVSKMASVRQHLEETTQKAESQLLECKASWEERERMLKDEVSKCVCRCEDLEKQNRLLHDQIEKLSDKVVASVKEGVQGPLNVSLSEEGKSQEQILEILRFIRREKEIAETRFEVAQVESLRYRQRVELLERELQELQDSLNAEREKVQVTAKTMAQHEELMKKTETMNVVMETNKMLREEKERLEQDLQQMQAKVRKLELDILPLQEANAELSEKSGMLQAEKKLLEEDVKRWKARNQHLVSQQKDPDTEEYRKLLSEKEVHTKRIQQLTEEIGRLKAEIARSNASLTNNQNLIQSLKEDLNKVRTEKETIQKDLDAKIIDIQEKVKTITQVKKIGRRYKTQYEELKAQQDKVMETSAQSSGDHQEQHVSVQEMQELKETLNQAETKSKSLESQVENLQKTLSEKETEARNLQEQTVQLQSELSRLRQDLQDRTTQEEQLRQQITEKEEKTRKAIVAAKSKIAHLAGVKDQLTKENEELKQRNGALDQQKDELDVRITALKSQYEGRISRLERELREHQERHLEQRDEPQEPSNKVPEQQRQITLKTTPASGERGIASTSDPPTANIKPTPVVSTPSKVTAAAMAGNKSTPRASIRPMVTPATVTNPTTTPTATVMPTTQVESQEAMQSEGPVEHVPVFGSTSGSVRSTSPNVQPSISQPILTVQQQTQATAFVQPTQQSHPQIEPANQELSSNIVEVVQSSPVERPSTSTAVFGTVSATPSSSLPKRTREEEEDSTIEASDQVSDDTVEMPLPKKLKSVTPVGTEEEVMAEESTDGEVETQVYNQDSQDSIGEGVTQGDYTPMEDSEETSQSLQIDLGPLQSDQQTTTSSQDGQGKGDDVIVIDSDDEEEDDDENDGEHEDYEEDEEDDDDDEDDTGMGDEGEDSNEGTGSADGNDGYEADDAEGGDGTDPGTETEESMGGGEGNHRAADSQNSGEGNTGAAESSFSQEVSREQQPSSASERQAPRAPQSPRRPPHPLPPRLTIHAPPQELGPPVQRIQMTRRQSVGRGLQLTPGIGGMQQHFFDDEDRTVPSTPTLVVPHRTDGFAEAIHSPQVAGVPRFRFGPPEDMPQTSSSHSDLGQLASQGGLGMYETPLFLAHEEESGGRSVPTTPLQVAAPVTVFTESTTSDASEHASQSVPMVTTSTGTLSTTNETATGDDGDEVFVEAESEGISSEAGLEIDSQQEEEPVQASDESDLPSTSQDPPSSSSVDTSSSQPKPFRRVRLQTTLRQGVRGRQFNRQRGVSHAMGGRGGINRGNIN

[7] = target: T7, HeLa cell extract proteins (Homo sapiens, UniProt Q00839)
T7 construct: endogenous in cells; host or cells: HeLa cell extract
T7 sequence (Q00839 whole entry): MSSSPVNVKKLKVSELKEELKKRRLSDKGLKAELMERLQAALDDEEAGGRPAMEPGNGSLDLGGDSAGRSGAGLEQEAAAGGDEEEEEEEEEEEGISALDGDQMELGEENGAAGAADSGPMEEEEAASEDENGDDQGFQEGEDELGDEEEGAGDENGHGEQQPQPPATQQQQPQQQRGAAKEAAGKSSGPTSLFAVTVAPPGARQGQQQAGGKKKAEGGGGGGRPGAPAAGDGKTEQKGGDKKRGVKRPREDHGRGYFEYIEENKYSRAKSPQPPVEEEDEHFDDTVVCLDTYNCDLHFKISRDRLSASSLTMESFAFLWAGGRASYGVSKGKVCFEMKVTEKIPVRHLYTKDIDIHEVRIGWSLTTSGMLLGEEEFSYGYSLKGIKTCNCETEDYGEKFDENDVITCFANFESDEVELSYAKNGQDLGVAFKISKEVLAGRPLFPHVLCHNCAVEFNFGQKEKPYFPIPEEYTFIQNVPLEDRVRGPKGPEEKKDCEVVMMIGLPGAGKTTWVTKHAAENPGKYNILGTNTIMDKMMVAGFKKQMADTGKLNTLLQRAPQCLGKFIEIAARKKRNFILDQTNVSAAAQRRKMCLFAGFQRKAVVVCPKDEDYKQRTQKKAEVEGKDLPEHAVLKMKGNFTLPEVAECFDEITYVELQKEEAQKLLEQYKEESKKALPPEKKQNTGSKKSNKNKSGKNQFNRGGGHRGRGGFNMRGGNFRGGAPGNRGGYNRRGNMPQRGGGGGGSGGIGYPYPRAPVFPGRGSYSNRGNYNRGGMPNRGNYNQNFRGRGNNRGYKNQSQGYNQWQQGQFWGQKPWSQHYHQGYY

[8] = target: T8, HeLa cell extract proteins (Homo sapiens, UniProt Q13155)
T8 construct: endogenous in cells; host or cells: HeLa cell extract
T8 sequence (Q13155 1-320): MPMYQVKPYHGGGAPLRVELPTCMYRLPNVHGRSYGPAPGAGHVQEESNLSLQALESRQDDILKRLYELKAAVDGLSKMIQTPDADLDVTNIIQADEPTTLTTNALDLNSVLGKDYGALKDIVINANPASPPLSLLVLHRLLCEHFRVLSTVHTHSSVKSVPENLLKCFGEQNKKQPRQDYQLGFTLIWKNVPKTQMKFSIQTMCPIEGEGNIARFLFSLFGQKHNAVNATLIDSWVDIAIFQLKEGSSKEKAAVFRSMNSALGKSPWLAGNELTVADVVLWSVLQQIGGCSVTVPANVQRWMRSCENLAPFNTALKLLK

SMILES	fold changes relative to vehicle control ([1]; HeLa, protein MCM3)	fold changes relative to vehicle control ([2]; HeLa, captured protein HSPA5)	fold changes relative to vehicle control ([3]; HeLa, protein SEC24A)	fold changes relative to vehicle control ([4]; protein CDC73, HeLa)	fold changes relative to vehicle control ([5]; HeLa, protein GOT2)	fold changes relative to vehicle control ([6]; HeLa, captured protein TPR)	fold changes relative to vehicle control ([7]; protein HNRNPU, HeLa)	fold changes relative to vehicle control ([8]; HeLa, captured protein JTV1)	fold changes relative to vehicle control ([1]; protein MCM3, HeLa)	fold changes relative to vehicle control ([2]; protein HSPA5, HeLa)	fold changes relative to vehicle control ([3]; protein SEC24A, HeLa)	fold changes relative to vehicle control ([5]; protein GOT2, HeLa)	fold changes relative to vehicle control ([6]; protein TPR, HeLa)	fold changes relative to vehicle control ([7]; HeLa, protein HNRNPU)	fold changes relative to vehicle control ([8]; captured protein JTV1, HeLa)	other results
Nc1nc2c(c(=O)[nH]1)N(C=O)C(CNc1ccc(C(=O)N[C@@H](CCC(=O)O)C(=O)O)cc1)CN2 (some centres unmarked) [LEU, leucovorin]	0.91	1.06	1.02	0.81	0.94	1.35	0.8	1.04	–	–	–	–	–	–	–	–
Nc1nc2[nH]cc(CCc3ccc(C(=O)N[C@@H](CCC(=O)O)C(=O)O)cc3)c2c(=O)[nH]1 [PTX, pemetrexed]	–	–	–	–	–	–	–	–	–	–	–	–	–	–	–	fold changes relative to vehicle control [1]: 1.03; fold changes relative to vehicle control [2]: 1.03; fold changes relative to vehicle control [3]: 1.03; fold changes relative to vehicle control [4]: 0.76; fold changes relative to vehicle control [5]: 0.99; fold changes relative to vehicle control [6]: 1.21; fold changes relative to vehicle control [7]: 0.92; fold changes relative to vehicle control [8]: 0.9
CCCCCCOc1ccc(Cc2cnc(N)nc2N)cc1 [compound 1]	–	–	–	1.18	–	–	–	–	0.94	0.96	1.15	1.12	1.19	0.88	1.04	–
CCCCCCOc1cccc(Cc2cnc(N)nc2N)c1 [compound 2]	–	–	–	1.08	–	–	–	–	1.38	1.12	1.44	2.22	1.44	1.2	1.16	–
Nc1nc2cccc(-c3ccccc3)c2n1Cc1ccc(Cl)c(Cl)c1 [compound 3]	–	–	–	0.88	–	–	–	–	1.29	0.99	1.03	0.84	1.2	0.96	0.89	–
NCCOCCOCC(=O)Nc1nc2ncc(CNc3ccc(C(=O)NC(CCC(=O)O)C(=O)O)cc3)nc2c(=O)[nH]1 (centres unmarked) [compound 6]	1.01	1	1.03	0.88	1.16	1.51	1.18	0.89	–	–	–	–	–	–	–	–
NCCCNc1ccc(C(=O)NC(CCC(=O)O)C(=O)O)cc1 (centres unmarked) [compound 7]	0.93	1	1.01	0.76	0.94	1.06	1.04	0.85	–	–	–	–	–	–	–	–
